From paper PMC8292346, “Dysfunction of the key ferroptosis-surveilling systems hypersensitizes mice to tubular necrosis during acute kidney injury” (Nature Communications, 2021)
“And” between values parts separate entries of the source, which are not always exact repeats. Identical values can stand only once. “Also recorded” adds a separate entry of the source.

Assays:
[1] = tested on: NIH3T3 cells; test: Simultaneous ferroptosis and necroptosis (RSL3 plus TZ), 7-AAD/annexin V flow cytometry; assay type: cell-based, murine; conditions: NIH3T3, 16 h
Procedure: (§1) To induce necroptosis in a human cell line, HT29 cells were stimulated at the indicated time points with 20 ng/ml human TNFα (Biolegend), 1 μM SMAC-mimetics (Birinapant, Chemietek), and 20 μM zVAD-fmk (Selleckchem, herein referred to as zVAD). For the induction of necroptosis in NIH3T3 cells, cells were incubated with 20 ng/ml TNF-α and 20 μM zVAD for indicated time points. […] Cells were seeded in six-well plates or petri dishes. […] After indicated time points, cells were collected and prepared for flow cytometry, immunoblotting, and/or LDH release assays.
(§2) Cells were harvested and the pellets were washed twice in PBS and stained with 5 μl of 7-AAD (BD Biosciences) and 5 μl of annexin-V-FITC (BD Biosciences) added to 100 μl annexin-V binding buffer (BD Biosciences). After 15 min, cells were recorded on the LSRII with the FACS Diva 6.1.1 software (BD Biosciences) and subsequently analyzed with the FlowJo v10 software (Tree Star).

[2] = tested on: NIH3T3 cells; test: Ferroptosis inducers (FINs)/ferroptocide, 7-AAD/annexin V flow cytometry; assay type: cell-based, murine; conditions: alone (DMSO) or with Fer-1 1 µM, Nec-1s 30 µM, Nec-1f 30 µM
Procedure: as §1, §2

[3] = tested on: primary murine tubular cells; test: RSL3-induced LDH release of primary kidney tubular cells; assay type: cell-based; conditions: primary renal tubular cells, RSL3 14 h
Procedure: The LDH release of cells or of freshly isolated kidney tubules was measured according to manufacturers’ instructions at indicated time points. In brief, an aliquot of the supernatant was taken and Lysis Solution was added for 45 min to induce maximal LDH release before another aliquot of the supernatant was taken. Subsequently, the supernatants were incubated with CytoTox 96® Reagent for 15 min protected from light at room temperature before adding Stop Solution. Absorbance was measured at 490 nm.
Generation, cell culture, and induction of cell death in primary murine tubular cells. Murine tubular cells were generated by outgrowth from isolated renal tubules (see above). Primary murine tubules were placed in six-well plates containing Dulbecco’s Modified Eagle Medium F-12 Nutrient Mixture without phenol red (DMEM/F12, Thermo Fisher), supplemented with 0.01 mg/ml recombinant human insulin, 5.5 μg/ml human transferrin, 0.005 μg/ml Na2SeO3 (ITS without linoleic acid, Sigma Aldrich), 50 nM hydrocortisone, 100 U/ml penicillin, and 100 μg/ml streptomycin (Pen/Strep, Thermo Fisher). After two days, the outgrown primary murine tubular cells were washed with PBS and a fresh medium was added. When the number of primary murine tubular cells reached approximately 50% confluence, the cells were removed from the six-well plates using Trypsin-EDTA (Thermo Fisher), washed with medium and a Ficoll Paque Plus (Sigma Aldrich) gradient was performed to remove any dead cells, and debris from the murine renal tubules. Cells were washed twice with PBS and seeded in six-well plates with medium. Once the number of grown cells reached approximately 50% confluence, they were washed with PBS and treated with type 2 FIN: RSL3 (also see Supplementary Table 2 for details). After 14 h, medium and cells were collected and prepared for LDH release assay. Images of the treated primary murine tubular cells were obtained using a 20×/0.30 PH1 objective on a Leica DMi1 microscope.

[4] = tested on: RIPK1; test: Western blot of pRIPK1 (S166) in TSZ-treated HT29 cells; assay type: cell-based, human; conditions: Nec-1s 10 µM, Fer-1 1 µM, Nec-1f 10 µM
Procedure: as §1
Cells were lysed in ice-cold 10 mM Tris-HCl, pH 7.5, 50 mM NaCl, 1% Triton X-100, 30 mM sodium pyrophosphate, 50 mM NaF, 100 μM Na3VO4, 2 μM ZnCl2, and 1 mM phenylmethylsulfonyl fluoride (PMSF, modified Frackelton buffer) for 30 min on ice. Insoluble material was removed by centrifugation (14 000×g, 30 min, 4 °C). Protein concentration was determined using a commercial Bradford assay kit according to the manufacturer’s instructions (Thermo Fisher). Equal amounts of protein (typically 30 μg per lane) were resolved on a 4%−15% gradient SDS/PAGE gel and transferred to a PVDF membrane (BIO-RAD). Primary antibody incubation was performed for anti-pS166-RIPK1 (Cell Signaling, Cat# 65746, 1:1000 dilution), anti-pS358-MLKL, (Abcam, ab187091, 1:1000 dilution), anti-MLKL (Genetex, GTX107538, 1:1000 dilution) and anti-β-Actin (Cell Signaling, Cat# 3700S, 1:1000 dilution). Secondary antibodies (anti-mouse, HRP-linked antibody, Cell Signaling, Cat# 7076S; anti-rabbit, HRP-linked antibody, Cell Signaling, Cat# 7074S) were applied at concentrations of 1:5.000 (also see Supplementary Table 1 for details). Proteins were then visualized by enhanced chemiluminescence (ECL; Amersham Biosciences).

[5] = tested on: NIH3T3 cells; test: Ferroptosis inducers (FINs)/ferroptocide, 7-AAD/annexin V flow cytometry; assay type: cell-based, murine; conditions: for cells in 7-AAD/annexin V flow cytometry (FigS9b): individual replicates
[6] = tested on: CD10-135 cells; test: FINs/ferroptocide, LDH release assay; assay type: cell-based, human; set-up: LDH release: unit not given here; conditions: for LDH release: Nec-1f 30 µM
[7] = tested on: C57Bl/6 N mice; test: Bilateral kidney ischemia-reperfusion injury, severe model (38 min ischemia), survival; conditions: single dose 2 mg/kg body weight before reperfusion
[8] = Inhibited co-autoxidation of egg phosphatidylcholine liposomes and STY-BODIPY (radical-trapping antioxidant activity); conditions: 2 µM Fer-1
Procedure: Inhibitors were then added (5 μl aliquots) at desired concentrations to the appropriate wells followed by vigorous mixing. […] Experiments were performed in triplicate using HPLC grade solvents and kinetic data is given as an average of three independent measurements. […]

[9] = tested on: HT1080 cells; test: Ferroptosis inducers (FINs)/ferroptocide, 7-AAD/annexin V flow cytometry; assay type: cell-based, human; conditions: Nec-1s 30 µM, Nec-1f 30 µM; for double-negative events (7-AAD/annexin V): alone (DMSO) or with Fer-1 1 µM
[10] = tested on: HT29 cells; test: TSZ-induced necroptosis, 7-AAD/annexin V flow cytometry; assay type: cell-based, human; conditions: HT29, TSZ; Nec-1f 10 µM
Procedure: as §1, §2

Structure (SMILES): CCOC(=O)c1ccc(NC2CCCCC2)c(N)c1 [Fer-1, ferrostatin-1]
- Rescue from necrosis induced by RSL3 plus TZ [1]: fail to rescue
- double-negative events (7-AAD/annexin V) ([2]; NIH3T3, 1.13 µM RSL3 6 h): 90.9% and 88.3% and 95.7% and 97.7% and 79%
- double-negative events (7-AAD/annexin V) ([2]; NIH3T3, 5 µM erastin 24 h): 93.3% and 78.4% and 95.1% and 95.2%
- double-negative events (7-AAD/annexin V) ([2]; NIH3T3, 10 µM FIN56 24 h): 94.7% and 91.5% and 96.4%
- double-negative events (7-AAD/annexin V) ([2]; NIH3T3, 10 µM FINO2 24 h): 79% and 79.9% and 82.9% and 91%
- Effect on RSL3-induced LDH release [3]: prevented; also recorded: complete reversal of LDH release
- Phosphorylation of RIPK1 at S166, western blot [4]: RIPK1 S166 phorphorylation was increased
- cells in 7-AAD/annexin V flow cytometry (FigS9b) ([5]; Erastin-induced ferroptosis): 95.0% and 94.0% and 92.0%
- cells in 7-AAD/annexin V flow cytometry (FigS9b) ([5]; FIN56-induced ferroptosis): 94.1% and 94.0%
- cells in 7-AAD/annexin V flow cytometry (FigS9b) ([5]; FINO2-induced ferroptosis): 90.0% and 90.2%
- cells in 7-AAD/annexin V flow cytometry (FigS9b) ([5]; Ferroptocide-induced cell death): 93.0% and 79.0%
- double-negative events (7-AAD/annexin V) ([5]; NIH3T3, 10 µM ferroptocide 24 h, alone (DMSO) or with Fer-1 1 µM, Nec-1s 30 µM, Nec-1f 30 µM): 76.5% and 92.2% and 95.9% and 92.6%
- cells in 7-AAD/annexin V flow cytometry (FigS9b) ([5]; RSL3-induced ferroptosis): 95.0% and 92.0%
- LDH release ([6]; CD10-135, FIN56 alone (FIN) or with Fer-1, Nec-1s): 8.38 and 8.509 and 10.9286
- LDH release ([6]; CD10-135, FINO2 alone (FIN) or with Fer-1, Nec-1s): 8.33 and 7.093 and 7.5109
- LDH release ([6]; CD10-135, RSL3 alone (FIN) or with Fer-1, Nec-1s): 6.44 and 3.43
- LDH release ([6]; CD10-135, ferroptocide alone (FIN) or with Fer-1, Nec-1s): 30.26 and 29.1563
- Effect on FIN-induced LDH release ([6]; CD10-135 cells): reversed
- Effect on the phenotype induced by ferroptocide ([6]; CD10-135 cells): reversed the phenotype
- Survival after severe renal IRI vs vehicle (Kaplan-Meier, words) [7]: not statistically significant
- ΔSTY-BODIPY ([8]; time 53820 s): -0.3745 µM
- ΔSTY-BODIPY ([8]; time 53880 s): -0.3737 µM
- ΔSTY-BODIPY ([8]; time 53940 s): -0.3729 µM
- ΔSTY-BODIPY ([8]; time 54000 s): -0.3705 µM
- double-negative events (7-AAD/annexin V) ([9]; HT1080, 1.13 µM RSL3 6 h): 92.2% and 77.7% and 91.5% and 91%
- double-negative events (7-AAD/annexin V) ([9]; HT1080, 5 µM erastin 24 h): 91.8% and 92.7%
- double-negative events (7-AAD/annexin V) ([9]; HT1080, 10 µM FIN56 24 h): 88.3% and 93.1% and 90%
- double-negative events (7-AAD/annexin V) ([9]; HT1080, 10 µM FINO2 24 h): 90.8% and 87.7% and 89.4%
- double-negative events (7-AAD/annexin V) ([9]; HT1080, 10 µM ferroptocide 24 h): 71.3% and 77%
- Inhibition of cell death induction by FINs/ferroptocide ([9]; HT1080, Fer-1 1 µM): inhibition of cell death induction
- Protection against TSZ-induced necroptosis (7-AAD/annexin V, words) [10]: did not provide protection against necroptosis
